# Laboratory results reported in patent US6290995A, “Plant drug for preventing cancer II” (priority 2000, dated 2001).
# What was measured:
# mouse epidermis = details: in words; cited from earlier work
# [1] = tested on: advanced ovarian and breast cancer; details: clinical trials, late 1980s and early 1990s; cited from earlier work
# c-myc RNA = experiment: Inhibition of oncogene c-myc RNA in ML-1 cells (northern blot); assay type: cell-based; details: Homo sapiens, ML1, 10 ng/ml, P <0.01
# Method: (§1) Cells were maintained in suspension culture in RPMI 1640 medium supplemented with 7.5% heat-inactivated FBS, Cells growth and viability were assayed by hemocytometer using trypan blue dye exclusion. RNA was isolated by the CsCl gradient modification. RNA pellets were washed twice by reprecipitation in ethanol and quantitated by absorbency at 260 nM. RNA analyzed by electrophoresis of 15 μg of RNA through 1.2% agarose formaldehyde gels followed by northern blot transfer to nitrocellulose.
# (§2) Single-standard uniformly labeled DNA probes were prepared. Probe of c-myc was a 1.7 Kb cla-Eco RI restriction fragment containing the 3'exon region of human c-myc and probe of c-myb was 1.0 Kb myb-specific Bam HI fragment. Probes for n-ras contained DNA fragments using a modification of the PCR technique. Probes for myb, myc and n-ras were isolated by electrolution. The isolated fragments were labeled to high specific activity with [α^32 P]-dCTP (3000 ci/mmol). Prehybridization of the filter was performed. The hybridization mixer contained 50,000 cpm of probe. The probes were hybridized at 58° C. in 15 mM NaCl, 1.5 nM sodium citrate for 3 hours. After hybridization, they were exposed to XAR-5 film. Oncogene expression was quantitated by densitometer scanning of the autoradiography.
# n-ras RNA = experiment: Inhibition of oncogene n-ras RNA in ML-1 cells (northern blot); assay type: cell-based; details: Homo sapiens, ML1, 10 ng/ml, P <0.01
# Method: as §1, §2
# c-myb RNA = experiment: Inhibition of oncogene c-myb RNA in ML-1 cells (northern blot); assay type: cell-based; details: Homo sapiens, ML1, 10 ng/ml, P <0.01
# Method: as §1, §2
Compound,effect on [3H] thymidine incorporation in mouse epidermis (mouse epidermis),clinical activity against advanced ovarian and breast cancer [1],inhibition at 0.01 µg/mL (c-myc RNA) [%],inhibition at 0.01 µg/mL (n-ras RNA) [%],inhibition at 0.01 µg/mL (c-myb RNA) [%]
"CCCCCCCCCCCCCC(=O)O[C@@H]1[C@@H](C)[C@@]2(O)[C@@H](C=C(CO)C[C@]3(O)C(=O)C(C)=C[C@@H]23)[C@@H]2C(C)(C)[C@]12OC(C)=O [TPA, tetradecanoyphorbol-13-acetate]",remarkable increase,–,–,–,–
CC(=O)O[C@H]1C(=O)[C@@]2(C)[C@H]([C@H](OC(=O)c3ccccc3)[C@]3(O)C[C@H](OC(=O)[C@H](O)[C@@H](NC(=O)c4ccccc4)c4ccccc4)C(C)=C1C3(C)C)[C@]1(OC(C)=O)CO[C@@H]1C[C@@H]2O [Taxol],–,impressive clinical activities,–,–,–
"COc1ccc2cc3[n+](cc2c1OC)CCc1cc2c(cc1-3)OCO2 [BE, Berberine]",–,–,50.5 ± 6.1,30.2 ± 3.5,52 ± 5.8
"O=C(O)[C@H]1O[C@@H](Oc2cc3oc(-c4ccccc4)cc(=O)c3c(O)c2O)[C@H](O)[C@@H](O)[C@@H]1O [BA, Baicalin]",–,–,29.3 ± 3.4,20.6 ± 3,24.4 ± 3
